Measured values from paper PMC6290913 (Journal of medicinal chemistry, 2018).
pIC50: −log10 of the molar value.

Experiments:
[1] = target: uPA (Homo sapiens, UniProt P00749); test: EnPlex activity-based protein profiling, uPA; conditions: 33.3 μM to 10 nM; semiquantitative
[2] = target: human ENaCs (α, β, and γ subunits) (Homo sapiens, UniProt P37088+P51168+P51170); test: ENaC inhibition assay; type: cell-based; conditions: 10 μM compound; transfected HEK-293 cells
[3] = system: 85 serine hydrolases; conditions: 33.3 μM to 10 nM; semiquantitative
[4] = system: Trypsin; test: Chromogenic TLSP activity assay, trypsin; type: biochemical; conditions: read-out: Trypsin IC50; chromogenic enzyme inhibition assay
[5] = target: Mouse uPA (active mouse urokinase, HMW) (Mus musculus, UniProt P06869)
[6] = target: low molecular weight human uPA (Homo sapiens, UniProt P00749); test: Fluorometric uPA activity assay; type: biochemical; conditions: relative to HMA 5
[7] = system: AsPC-1 human pancreatic cancer cells + human pancreatic stellate cells; test: Orthotopic xenograft mouse model of pancreatic cancer; conditions: for liver metastases: 18 or 26 10 mg/kg ip daily for 28 days, compared to gemcitabine

Mouse uPA (active mouse urokinase, HMW), sequence (P06869 180-433 limits assumed): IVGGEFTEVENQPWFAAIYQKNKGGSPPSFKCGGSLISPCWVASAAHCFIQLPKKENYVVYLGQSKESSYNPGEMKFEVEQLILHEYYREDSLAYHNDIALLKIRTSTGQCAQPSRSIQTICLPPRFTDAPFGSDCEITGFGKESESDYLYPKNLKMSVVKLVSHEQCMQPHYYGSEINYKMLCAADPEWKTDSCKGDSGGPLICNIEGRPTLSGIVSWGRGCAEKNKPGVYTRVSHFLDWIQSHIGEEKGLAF
Mouse uPA (active mouse urokinase, HMW), sequence (P06869 21-178 partner limits assumed): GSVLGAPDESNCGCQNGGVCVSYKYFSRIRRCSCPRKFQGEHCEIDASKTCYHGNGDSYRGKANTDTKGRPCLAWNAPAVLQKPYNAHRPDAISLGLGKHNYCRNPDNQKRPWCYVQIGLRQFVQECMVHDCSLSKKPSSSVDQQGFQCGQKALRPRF
human ENaCs (α, β, and γ subunits), sequence (P51170 whole entry): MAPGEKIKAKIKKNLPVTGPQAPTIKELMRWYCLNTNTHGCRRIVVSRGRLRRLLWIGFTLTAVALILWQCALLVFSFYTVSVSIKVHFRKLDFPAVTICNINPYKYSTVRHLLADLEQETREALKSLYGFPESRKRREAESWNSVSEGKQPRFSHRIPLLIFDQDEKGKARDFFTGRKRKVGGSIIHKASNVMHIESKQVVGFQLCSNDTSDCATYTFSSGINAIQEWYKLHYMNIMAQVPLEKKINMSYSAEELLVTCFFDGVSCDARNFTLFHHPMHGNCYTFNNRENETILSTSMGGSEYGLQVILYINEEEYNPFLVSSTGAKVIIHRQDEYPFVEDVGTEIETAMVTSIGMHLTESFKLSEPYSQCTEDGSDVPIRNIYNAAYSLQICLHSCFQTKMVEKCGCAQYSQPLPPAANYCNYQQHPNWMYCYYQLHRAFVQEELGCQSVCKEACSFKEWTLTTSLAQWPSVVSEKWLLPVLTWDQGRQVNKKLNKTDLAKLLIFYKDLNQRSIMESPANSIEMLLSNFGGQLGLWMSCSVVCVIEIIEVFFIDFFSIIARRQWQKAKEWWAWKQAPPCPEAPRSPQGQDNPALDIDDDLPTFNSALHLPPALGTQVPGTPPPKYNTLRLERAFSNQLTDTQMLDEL
human ENaCs (α, β, and γ subunits), sequence (P37088 whole entry): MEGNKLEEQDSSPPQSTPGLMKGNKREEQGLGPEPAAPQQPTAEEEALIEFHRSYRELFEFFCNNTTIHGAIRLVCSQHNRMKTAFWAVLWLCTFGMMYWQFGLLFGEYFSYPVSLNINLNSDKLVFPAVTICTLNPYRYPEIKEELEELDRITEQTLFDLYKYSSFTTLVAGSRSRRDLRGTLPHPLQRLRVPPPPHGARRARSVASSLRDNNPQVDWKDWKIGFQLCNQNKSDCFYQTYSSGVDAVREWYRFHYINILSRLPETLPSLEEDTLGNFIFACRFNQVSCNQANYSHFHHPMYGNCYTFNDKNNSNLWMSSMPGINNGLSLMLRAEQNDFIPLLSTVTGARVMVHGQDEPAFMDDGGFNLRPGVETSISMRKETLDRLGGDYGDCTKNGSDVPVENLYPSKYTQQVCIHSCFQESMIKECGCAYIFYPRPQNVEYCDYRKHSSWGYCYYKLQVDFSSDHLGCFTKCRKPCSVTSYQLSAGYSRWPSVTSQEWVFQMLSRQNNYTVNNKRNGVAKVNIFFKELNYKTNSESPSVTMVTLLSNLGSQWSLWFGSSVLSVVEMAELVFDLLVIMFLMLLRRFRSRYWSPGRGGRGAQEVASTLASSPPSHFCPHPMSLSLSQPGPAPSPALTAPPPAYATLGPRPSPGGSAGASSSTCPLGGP
human ENaCs (α, β, and γ subunits), sequence (P51168 whole entry): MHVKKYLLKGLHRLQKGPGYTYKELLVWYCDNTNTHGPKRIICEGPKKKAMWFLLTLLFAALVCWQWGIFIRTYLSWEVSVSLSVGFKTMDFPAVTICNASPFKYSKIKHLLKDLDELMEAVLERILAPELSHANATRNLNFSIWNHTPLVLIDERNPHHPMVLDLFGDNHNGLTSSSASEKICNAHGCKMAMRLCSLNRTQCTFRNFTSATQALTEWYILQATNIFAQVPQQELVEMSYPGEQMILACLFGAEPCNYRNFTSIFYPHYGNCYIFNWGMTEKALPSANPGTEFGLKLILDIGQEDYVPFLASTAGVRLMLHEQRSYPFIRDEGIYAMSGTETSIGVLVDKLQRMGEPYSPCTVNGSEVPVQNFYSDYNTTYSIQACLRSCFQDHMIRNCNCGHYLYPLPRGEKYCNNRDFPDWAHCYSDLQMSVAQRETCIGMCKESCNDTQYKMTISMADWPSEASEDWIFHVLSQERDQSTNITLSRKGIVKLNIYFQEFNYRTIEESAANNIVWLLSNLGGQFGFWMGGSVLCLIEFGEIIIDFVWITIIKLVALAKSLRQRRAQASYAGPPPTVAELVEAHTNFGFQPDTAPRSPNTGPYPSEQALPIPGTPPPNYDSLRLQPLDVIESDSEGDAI

| SMILES | serine hydrolases inhibited in EnPlex screen [3] | decrease in affinity for mouse uPA versus human uPA [5] | increase in uPA potency relative to HMA [6] | other results |
| --- | --- | --- | --- | --- |
| N=C(N)NC(=O)c1nc(Cl)c(N2CCCCCC2)nc1N [Compound 5, 5-N,N-(hexamethylene)amiloride, reference compound] | activity against the highly homologous S28 protease family members dipeptidyl peptidase 2 (DPP7) and prolylcarboxypeptidase (PRCP) | ~7 fold | – | inhibitory activity against uPA in EnPlex screen [1]: not observed; inhibition of ENaC [2]: greatly reduced activity; pIC50 [4]: < 5.00 |
| N=C(N)NC(=O)c1nc(-c2ccccc2)c(N2CCCCCC2)nc1N [Compound 9] | – | – | – | decrease in uPA potency relative to HMA [6]: ~ 3.7 fold |
| N=C(N)NC(=O)c1nc(-c2cncc3ccccc23)c(N2CCCCCC2)nc1N [Compound 13, 3-Amino-5-(azepan-1-yl)-N-carbamimidoyl-6-(isoquinolin-4-yl)pyrazine-2-carboxamide] | – | – | – | decrease in uPA potency relative to HMA [6]: ~3 fold |
| Cn1cc(-c2nc(C(=O)NC(=N)N)c(N)nc2N2CCCCCC2)cn1 [Compound 14, 3-Amino-5-(azepan-1-yl)-N-carbamimidoyl-6-(1-methyl-1H-pyrazol-4-yl)pyrazine-2-carboxamide] | – | – | ~ 2.7 fold | – |
| N=C(N)NC(=O)c1nc(-c2cc3ccccc3o2)c(N2CCCCCC2)nc1N [Compound 18, 3-Amino-5-(azepan-1-yl)-6-(benzofuran-2-yl)-N-carbamimidoylpyrazine-2-carboxamide] | inhibiting plasma kallikrein (KLKb1) and trypsin | 10- to 30 fold | – | liver metastases [7]: reduced; pIC50 [4]: < 5.00 |
| N=C(N)NC(=O)c1nc(-c2ccco2)c(N2CCCCCC2)nc1N [Compound 22, 3-Amino-5-(azepan-1-yl)-N-carbamimidoyl-6-(furan-2-yl)-pyrazine-2-carboxamide] | – | – | ~ 8.7 fold | – |
| N=C(N)NC(=O)c1nc(-c2cncnc2)c(N2CCCCCC2)nc1N [Compound 25, 3-Amino-5-(azepan-1-yl)-N-carbamimidoyl-6-(pyrimidin-5-yl)pyrazine-2-carboxamide] | slight inhibition of trypsin being the only off-target TLSP activity observed | – | ~ 12.6 fold | – |
| COc1ncc(-c2nc(C(=O)NC(=N)N)c(N)nc2N2CCCCCC2)cn1 [Compound 26, 3-Amino-5-(azepan-1-yl)-N-carbamimidoyl-6-(2-methoxypyrimidin-5-yl)pyrazine-2-carboxamide] | slight activity against C1s, plasma kallikrein, plasmin, prolylcarboxy peptidase, trypsin, and transmembrane protease serine 11D (TMPRSS11d) | 10- to 30 fold | – | liver metastases [7]: no macroscopic metastatic lesions observed |
| Nc1ccn([C@@H]2O[C@H](CO)[C@@H](O)C2(F)F)c(=O)n1 [gemcitabine, reference compound] | – | – | – | effect on end point primary tumor volume ([7]; gemcitabine 75 mg/kg po twice weekly, 18 or 26 10 mg/kg ip daily, 28 days): only modest inhibitory effects |
